Results from patent US6225306A, “Biphenyl derivatives and drug composition” (Wakamoto Pharmaceutical Co., Ltd., priority 1997, dated 2001).
pIC50: −log10 of the molar value. Values joined by “and” are separate entries in the source; they are usually repeats but may differ in a detail not shown here. Identical values can stand only once. Counter-ions that a name gives are not always drawn. Like-named read-outs stand apart in the source and are kept apart here. Blank lines part the entries; values can stand above or below the compound they belong to.

Key:
Vasopressin V1 Receptor = Vasopressin V1 Receptor (Rattus norvegicus, UniProt P30560); test: biochemical; format: binding, rat (Sprague-Dawley, female; liver crude membrane); settings: for inhibition at 0.1 µM: 1 h, read-out: Binding Rate of Vasopressin V1 Receptor
Procedure: The livers excised from Sprague-Dawley female rats were cut into small pieces, and were homogenized in 50 mM Tris-HCl, pH 7.4 hereunder referred to as "buffer"). The homogenate was centrifuged at 50000×g, at 4° C. for 20 minutes. The pellet was added the buffer in an amount of 10 times the volume of the pellet, the mixture was recentrifuged by the same method as described above to wash the residue. The buffer was further added to the resulting pellet so that the protein content thereof was adjusted to 10 mg/ml to thus give a crude membrane fraction of rat liver. The crude membrane fraction of rat liver was used in the following test. More specifically, 5000 μg of the crude liver membrane was incubated with [^3 H]-Arg-vasopressin V-1 antagonist ([^3 H) vasopressin V1 antagonist: 2 nM) and various concentration (3×10^-12 to 10^-6) of the test compounds in a 1000 μL of buffer containing 10 mM magnesium chloride, 10 mM potassium chloride and 0.1% bovine serum albumin at 25° C. for 60 minutes. Thereafter the incubation mixture was rapidly filtered by vacuum using a cell harvester. The filters were washed with buffer to remove free ligands and excess buffer, and to thus trap labeled ligand linked with the receptor on the filter paper. The filter paper was sufficiently dried and mixed with a liquid scintillator, and the amount of the [^3 H] vasopressin V1 antagonist bonded to the membrane was determined using a liquid scintillation counter. The inhibition rate at each concentration was calculated according to the following equation:
Inhibition Rate (%)=100-[(B-N)/(B0 -N)]×100
Wherein B represents the amount of the [^3 H] vasopressin V1 antagonist bonded to the membrane in the presence of known amounts of the compound to be tested and the [^3 CH] vasopressin V1 antagonist;
B0 represents the amount of the [^3 H] vasopressin V1 antagonist bonded to the membrane in the absence of the compound to be tested;
N represents the amount of the [^3 H] vasopressin V1 antagonist bonded to the membrane in the presence of an excess of vasopressin (10^-6 M).
The IC50 value (the concentration required to cause 50% inhibition of the specific binding of [^3 H]-V1 antagonist) was determined. […] On the other hand, for the compounds which were investigated only one concentration (10^-7 M), the inhibition rate at that concentration was defined to be the binding rate.

Vasopressin V2 Receptor = Vasopressin V2 Receptor (Rattus norvegicus, UniProt Q00788); test: biochemical; format: binding, rat (Sprague-Dawley, female; kidney crude membrane); settings: for inhibition at 0.1 µM: 1 h, read-out: Binding Rate of Vasopressin V2 Receptor; for pIC50: [3H] vasopressin V2 antagonist 2 nM, 25° C., 60 minutes, read-out: Affinity for Vasopressin V2 Receptor, IC50
Normal Conscious Rat [1] = test: Aquaretic Effects in Normal Conscious Rat (urine volume); format: in vivo, rat (Sprague-Dawley, male)
Procedure: Aquaretic Effects in Normal Conscious Rat
(§1) Studies were performed with Sprague-Dawley male SPF rats (body weight: 240 to 320 g; 8-week-old). In this experiment, each group consisted of not less than 4 animals and rats were fasted over 16 to 20 hours. The animals were acclimatized in metabolic cages for one hour, then each compound to be tested was dissolved in 100% N,N-dimethylformamide or suspended in 5% gum arabic solution and administered to these animals intravenously (iv.) in a dose of 3 mg/kg or orally (p.o.) in a dose of 30 mg/kg. Immediately after the test compound or vehicle were orally administered, saline (25 ml/kg) was given orally. Spontaneous voided urines were collected for 4 hours after the administration of the compound and the amount of the urine were determined. In this case, the control group consisted of animals to which only 5% gum arabic was orally administered.
In addition, known compounds of Comparative Examples 2 and Comparative Examples 3 and 4 represented by the following formulas were used as control compounds.

male ICR mice = test: Acute Toxicity Test; format: in vivo
Procedure: To groups of male ICR mice (6-week-old) each consisting of 5 animals, there were orally administered the compounds of Examples 13, 18, 25 and 30 and Comparative Examples 2 and 5 suspended in 5% gum arabic solution at doses of 150, 500 and 1500 mg/kg, followed by observation of the general symptoms of these animals during 7 days after the administration to thus evaluate the number of death. In this respect, mice were given feed and water ad libitum throughout this test except for the term extending from 16 to 20 hours before the administration and 4 hours after the administration.

Normal Conscious Rat [2] = test: Urinary electrolytes and urinary osmotic pressure in conscious rat; format: in vivo, rat (Sprague-Dawley, male); settings: 0-2 hours, relation to urine volume
Procedure: as §1
Separately, the cumulative urine in each animal was collected for 2 hours after the administration of the compound, and analyze the amounts of sodium and potassium as electrolytes present in the urine (ion-selective electrode method), the amount of chlorine (coulometric titration) and urinary osmotic pressure (cryoscopic method). The results thus observed for typical compounds of the present invention are plotted on the accompanying drawings (FIGS. 1, 2, 3 and 4). […]. In this test, each compound tested was used in the following dose. […]

[3] = 10^-7 M, inhibition rate at this concentration
[4] = [3H] vasopressin V1 antagonist 2 nM, 25° C., 60 minutes, read-out: Affinity for Vasopressin V1 Receptor, IC50
[5] = 150 mg/kg, oral, 7 days observation
[6] = 500 mg/kg, oral, 7 days observation
[7] = 1500 mg/kg, oral, 7 days observation

Vasopressin V2 Receptor, sequence (Q00788 whole entry): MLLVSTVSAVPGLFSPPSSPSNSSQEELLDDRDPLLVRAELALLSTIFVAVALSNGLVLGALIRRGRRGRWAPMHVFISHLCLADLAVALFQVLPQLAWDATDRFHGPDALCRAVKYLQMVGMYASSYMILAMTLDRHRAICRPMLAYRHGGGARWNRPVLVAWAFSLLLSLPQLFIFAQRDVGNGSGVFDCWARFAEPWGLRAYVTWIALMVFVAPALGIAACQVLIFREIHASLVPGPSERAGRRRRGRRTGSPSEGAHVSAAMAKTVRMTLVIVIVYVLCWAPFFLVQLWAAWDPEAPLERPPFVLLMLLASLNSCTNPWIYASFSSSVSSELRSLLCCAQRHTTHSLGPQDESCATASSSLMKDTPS
Vasopressin V1 Receptor, sequence (P30560 whole entry): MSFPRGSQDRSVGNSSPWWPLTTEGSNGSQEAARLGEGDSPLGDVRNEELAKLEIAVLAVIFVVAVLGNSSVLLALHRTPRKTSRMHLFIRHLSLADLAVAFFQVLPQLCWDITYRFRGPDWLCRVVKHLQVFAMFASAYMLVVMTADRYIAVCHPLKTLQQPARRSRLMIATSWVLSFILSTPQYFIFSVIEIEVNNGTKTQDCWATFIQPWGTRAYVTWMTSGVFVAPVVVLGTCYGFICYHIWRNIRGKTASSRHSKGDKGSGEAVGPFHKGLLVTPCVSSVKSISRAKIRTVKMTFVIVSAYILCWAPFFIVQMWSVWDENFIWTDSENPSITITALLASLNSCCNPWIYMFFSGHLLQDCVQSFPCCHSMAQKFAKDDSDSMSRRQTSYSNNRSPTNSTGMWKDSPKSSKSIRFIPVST

SMILES: Cc1ccccc1C(=O)Nc1ccc(C(=O)N2CCCC(N(C)C)c3ccccc32)cc1 (stereo not drawn) [Comp. Ex. 2, reference compound]
pIC50 (Vasopressin V1 Receptor): < 6.00 | inhibition at 0.1 µM (Vasopressin V1 Receptor): 3.4% | inhibition at 0.1 µM (Vasopressin V2 Receptor): 91.2% | Amount of Urine Volume (Normal Conscious Rat [1]; 3 mg/kg, i.v.): 22.9 ml/kg/0-4 hr. | Amount of Urine Volume (Normal Conscious Rat [1]; 30 mg/kg, p.o.): 79.1 ml/kg/0-4 hr. | number of death out of 5 or 6 animals (male ICR mice; mouse, in vivo): 4 out of 5 and 0/5 and 4/5

SMILES: Cc1ccc(-c2ccccc2C(=O)Nc2ccc(C(=O)N3C[C@H]4C[C@H](O)CN4c4ccccc43)cc2)cc1 [Example 18, (2S, 3aR)-2-Hydroxy-5-[4-[[2-(4-Tolyl) Benzoyl]Amino]Benzoyl]-1,2,3,3a,4,5-Hexahydro-Pyrrolo[1,2-a]Quinoxaline]
inhibition at 0.1 µM (Vasopressin V1 Receptor; [3]): 58.3% | pIC50 (Vasopressin V1 Receptor; [4]): 7.18 | inhibition at 0.1 µM (Vasopressin V2 Receptor; [3]): 100% | pIC50 (Vasopressin V2 Receptor): 9.74 | Amount of Urine Volume (Normal Conscious Rat [1]; 3 mg/kg, i.v.): 79.2 ml/kg/0-4 hr. | Amount of Urine Volume (Normal Conscious Rat [1]; 30 mg/kg, p.o.): 96.3 ml/kg/0-4 hr. | number of death out of 5 or 6 animals (male ICR mice; [5]): 0/6 | number of death out of 5 or 6 animals (male ICR mice; [6]): 0/6 | number of death out of 5 or 6 animals (male ICR mice; [7]): 0/6

SMILES: O=C(Nc1ccc(C(=O)N2C[C@H]3C[C@@H](O)CN3c3ccccc32)cc1)c1ccccc1-c1ccccc1 [Example 13, (2R,3aR)-2-Hydroxy-5-[4-[(2-Phenylbenzoyl) Amino]Benzoyl]-1,2,3,3a,4,5-Hexahydro-Pyrrolo[1,2-a]Quinoxaline]
Amount of Urine Volume (Normal Conscious Rat [1]; 3 mg/kg, i.v.): 55.6 ml/kg/0-4 hr. | Amount of Urine Volume (Normal Conscious Rat [1]; 30 mg/kg, p.o.): 82.0 ml/kg/0-4 hr. | number of death out of 5 or 6 animals (male ICR mice; [6]): 0/5 | number of death out of 5 or 6 animals (male ICR mice; [7]): 0/5

SMILES: Cc1nc2c([nH]1)-c1ccccc1N(C(=O)c1ccc(NC(=O)c3ccccc3-c3ccccc3)cc1)CC2 [Comparative Example 5, reference compound]
number of death out of 5 or 6 animals (male ICR mice; [5]): 0/5 | number of death out of 5 or 6 animals (male ICR mice; [6]): 2 out of 5 and 2/5 | number of death out of 5 or 6 animals (male ICR mice; [7]): 2 out of 5 and 2/5

SMILES: O=C1C[C@H]2CN(C(=O)c3ccc(NC(=O)c4ccccc4-c4ccccc4)cc3)c3ccccc3C(=O)N2C1 [Example 30, (11aS)-10-[4-[(2-Phenylbenzoyl) Amino]Benzoyl]-1,2,3,10,11, 11a-Hexahydro-5H-Pyrrolo [2,1-c][1,4]Benzodiazepin-2,5-Dione]
Amount of Urine Volume (Normal Conscious Rat [1]; 3 mg/kg, i.v.): 57.1 ml/kg/0-4 hr. | Amount of Urine Volume (Normal Conscious Rat [1]; 30 mg/kg, p.o.): 103.0 ml/kg/0-4 hr. | number of death out of 5 or 6 animals (male ICR mice; [5]): 0/6 | number of death out of 5 or 6 animals (male ICR mice; [6]): 0/6 | number of death out of 5 or 6 animals (male ICR mice; [7]): 0/6

SMILES: NS(=O)(=O)c1cc(C(=O)O)c(NCc2ccco2)cc1Cl [Comp. Ex. 3, Furosemide, reference compound]
Amount of Urine Volume (Normal Conscious Rat [1]; 3 mg/kg, i.v.): 27.3 ml/kg/0-4 hr. | Amount of Urine Volume (Normal Conscious Rat [1]; 30 mg/kg, p.o.): 59.9 ml/kg/0-4 hr. | urinary osmotic pressure (Normal Conscious Rat [2]; FIG. 4): increased approximately in proportion to the increase in the amount of the urine | amount of electrolytes excreted in the urine (Normal Conscious Rat [2]; FIGS. 1-3): increased approximately in proportion to the increase in the amount of the urine

inhibition at 0.1 µM (Vasopressin V1 Receptor; [3]): 19.5% | inhibition at 0.1 µM (Vasopressin V2 Receptor; [3]): 100%
SMILES: CN(C)[C@H]1C[C@@H]2CN(C(=O)c3ccc(NC(=O)c4ccccc4-c4ccccc4)cc3)c3ccccc3N2C1 [Example 21, (2S, 3aR)-2-(N,N-Dimethylamino)-5-[4-[(2-Phenylbenzoyl) Amino]Benzoyl]-1,2,3,3a,4,5-Hexahydro-Pyrrolo[1,2-a]Quinoxaline]
Amount of Urine Volume (Normal Conscious Rat [1]; 3 mg/kg, i.v.): 47.6 ml/kg/0-4 hr. | Amount of Urine Volume (Normal Conscious Rat [1]; 30 mg/kg, p.o.): 81.4 ml/kg/0-4 hr.

inhibition at 0.1 µM (Vasopressin V1 Receptor; [3]): 48.2% | inhibition at 0.1 µM (Vasopressin V2 Receptor; [3]): 96.7%
SMILES: Cc1ccc(-c2ccccc2C(=O)Nc2ccc(C(=O)N3C[C@H]4CCCN4Cc4ccccc43)cc2)cc1 [Example 44, (11aR)-10-[4-[[2-(4-Tolyl) Benzoyl]Amino]Benzoyl]-1,2,3,10,11, 11-Hexahydro-5H-Pyrrolo[2,1-c][1,4]Benzodiazepine Hydrochloride]
Amount of Urine Volume (Normal Conscious Rat [1]; 3 mg/kg, i.v.): 73.0 ml/kg/0-4 hr. | Amount of Urine Volume (Normal Conscious Rat [1]; 30 mg/kg, p.o.): 92.8 ml/kg/0-4 hr.

SMILES: O=C(Nc1ccc(C(=O)N2C[C@@H]3CCCN3C(=O)c3ccccc32)cc1)c1ccccc1-c1ccccc1 [Example 25, (11aS)-10-[4-[(2-Phenylbenzoyl) Amino]Benzoyl]-1,2,3,10,11, 11a-Hexahydro-5H-Pyrrolo[2,1-c][1,4]Benzodiazepin-5-One]
inhibition at 0.1 µM (Vasopressin V1 Receptor; [3]): 4.1% | pIC50 (Vasopressin V1 Receptor; [4]): < 6.00 | inhibition at 0.1 µM (Vasopressin V2 Receptor; [3]): 100% | pIC50 (Vasopressin V2 Receptor): 8.80 | Amount of Urine Volume (Normal Conscious Rat [1]; 3 mg/kg, i.v.): 58.5 ml/kg/0-4 hr. | Amount of Urine Volume (Normal Conscious Rat [1]; 30 mg/kg, p.o.): 102.7 ml/kg/0-4 hr. | number of death out of 5 or 6 animals (male ICR mice; [5]): 0/6 | number of death out of 5 or 6 animals (male ICR mice; [6]): 0/6 | number of death out of 5 or 6 animals (male ICR mice; [7]): 0/6
